# Laboratory results published in patent US20050013875A1, “Immunopotentiators in thermotherapy for cancer” (priority 2001, published 2005).
# Key:
# HSP70 [1] = experiment: In vitro HSP70 expression in heated MFH cells (immunoassay kit, Western Blot); assay type: cell-based; details: GGA 10^-5 M or 10^-4 M, 45° C. for 15 minutes, measured 6 hours after heating
# Description: Cultivation of MFH cells was carried out by using a 100 mm Petri dish for culturing cells into which 10 ml of a medium had been charged, at 37° C. for 24 hours in an incubator into which 5% of carbon dioxide was added. As the medium, a medium comprising Dulbecco's modified Eagle's Medium that contains 10% fetal bovine serum and, as antibiotics, penicillin G potassium (100 U/ml) and streptomycin sulfate ([…]) was used.
# After 6 hours from completion of the heating, a culture broth was removed from the Petri dish for culturing, the cells were washed twice with a physiological saline, a liquid to dissolve the cells attached to a HSP70 immunoassay kit was added to the cells with a predetermined amount to extract HSP70 from the cells. This was quantitated by the immunoassay kit. Also, the cells extract was subjected to electrophoresis, and an amount of HSP70 was qualitatively examined by Western Blot.
# HSP70 [2] = experiment: HSP70 immunostain of tumor tissue after GGA administration; assay type: in vivo; details: F344 rat MFH tumor, GGA locally injected 12 hours after MCL, tumor cut out 2 hours after GGA, FIG. 1
# Description: (§1) As experimental individuals, F344 rats (female, 7 to 8-weeks old) were used. MFH cells 1×10^7 cultured on Petri dish for cell-cultivation were dispersed in about 50 μl of a physiologically buffered saline, and then, the cells suspension was transplanted subcutaneously to a right leg of an experimental individual by using a scalp vein needle (25G×5/8″) (Terumo Corporation) to make a cancer-carried experimental individual. Nembutal (available from Dainippon Pharmaceutical Co., Ltd.) was used for anesthesia, and that diluted to five times (50 mg/kg body weight) was administered to abdominal cavity.
# Under anesthesia of a rat, MCL with a concentration of 7.5 mg/ml and 3.3 mg of net weight magnetite was administered to the tumor tissue of the rat 10 days after transplantation of the MFH cells over 30 minutes by using a microsyringe pump (SP100i syringe pump, manufactured by WPI Co.), and thereafter, the rat was allowed to stand for 30 minutes. Magnetic field irradiation was carried out after 24 hours from injection of the MCL.
# MFH cells = experiment: Tumor regression in MFH cancer-carried F344 rats under MCL hyperthermia (tumor tissue volume); assay type: in vivo, rat; details: (GGA+AMF) Group: hyperthermia using MCL and GGA in combination, magnetic field irradiation three times, among 8 individuals
# Description: as §1
# A slurry of the magnetite (particle diameter 10 nm; available from Toda Kogyo Corporation) was sufficiently washed with a distilled water to remove unnecessary ion components, subjected to ultrasonic wave treatment, to obtain colloidal magnetite. […]
# Under anesthesia of experimental individuals, a longer diameter and a shorter diameter of the tumor tissue were measured by using calipers and calculated out from the following formula. […]
substance,measurement,setting,value
geranylgeranyl acetone [GGA],expressed amount of the HSP70 after applying thermal stress,HSP70 [1],increased depending on an amount of the GGA added
same,induction of HSP70 in tumor tissue (HSP70 stain),HSP70 [2],induction of HSP70 was confirmed
same,individuals whose tumors were completely regressed and cured,MFH cells,8 individuals
